Laboratory results published in ChEMBL document CHEMBL1201862, “PubChem BioAssay data set” (2004).
The source made the active and inactive calls.

Key:
Troponin, cardiac muscle = Troponin, cardiac muscle (Homo sapiens, UniProt P19429+P45379+P63316); assay: Fluorescence-based biochemical high throughput dose response assay for activators of the calcium sensitivity of cardiac Regulated Thin Filaments (RTF). [Related pubchem assays (depositor defined):AID493008, AID493018, AID504382, AID504383]; format: protein-complex assay
[1] = target: T1, RNA-binding protein pos-1 (Caenorhabditis elegans, UniProt G5EF15); assay: disruptors of C. elegans POS-1 RNA interaction – biochemical, fluorescence polarization, dose response (AID 1964);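 note: purified POS-1 fused to maltose binding protein made in E. coli; potency of compounds blocking POS-1 binding to fluorescent RNA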
T1 sequence (G5EF15 whole entry): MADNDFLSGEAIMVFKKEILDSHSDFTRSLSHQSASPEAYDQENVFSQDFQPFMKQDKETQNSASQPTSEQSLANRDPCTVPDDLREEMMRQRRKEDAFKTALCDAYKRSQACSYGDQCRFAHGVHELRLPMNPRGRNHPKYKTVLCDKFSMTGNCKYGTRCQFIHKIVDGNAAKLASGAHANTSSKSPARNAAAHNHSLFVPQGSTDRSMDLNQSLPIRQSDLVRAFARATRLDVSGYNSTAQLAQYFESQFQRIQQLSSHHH

[2] = target: Luciferin 4-monooxygenase (Photinus pyralis, UniProt P08659); assay: inhibition of purified Photinus pyralis luciferase – biochemical, luminescence, dose response (AID 1891)
[3] = target: Peroxisome proliferator-activated receptor gamma/Nuclear receptor coactivator 2 (Homo sapiens, UniProt P37231); assay: (§1) TR-FRET dose response biochemical High Throughput Screening assay for agonists of the steroid receptor coactivator 2 (SRC-2) recruitment by the peroxisome proliferator-activated receptor gamma (PPAR gamma): non-selective agonists. [Related pubchem assays: 1297, 1032 ]; format: functional
[4] = target: Peroxisome proliferator-activated receptor gamma/Nuclear receptor coactivator 1 (Homo sapiens, UniProt P37231); assay: as §1, with “1 (SRC-1)” for “2 (SRC-2)”, “assays (depositor defined):AID1300, AID1808, AID504735, AID631]” for “assays: 1297, 1032 ]”; format: protein assay
[5] = target: T2, Endoribonuclease toxin MazF (Escherichia coli K-12, UniProt P0AE70); assay: substrate-only fluorescence increase artefacts – biochemical, single-stranded RNase substrate, counter-screen for MazEF activator project, dose response (AID 588502); format: functional
T2 sequence (P0AE70 whole entry): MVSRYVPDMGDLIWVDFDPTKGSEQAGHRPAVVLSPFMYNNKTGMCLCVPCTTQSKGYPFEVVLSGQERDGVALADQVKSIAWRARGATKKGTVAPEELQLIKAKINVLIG

[6] = target: Peroxisome proliferator-activated receptor gamma/Nuclear receptor coactivator 3 (Homo sapiens, UniProt P37231); assay: as §1, with “3 (SRC-3)” for “2 (SRC-2)”, “1301 (Confirmation screen.), 1048 (Primary screen.)]” for “1297, 1032 ]”; format: functional
[7] = Luminescence Cell-Based Dose Confirmation HTS to Identify Inhibitors of Platelet Dense Granule Release. [Related pubchem assays: 1663 (Primary HTS), 1678 (Summary of Project)]; format: functional
[8] = target: T3, Zinc finger protein mex-5 (Caenorhabditis elegans, UniProt Q9XUB2); assay: potency of MEX-5 RNA-binding blockers – biochemical, C. elegans, fluorescence polarization, dose response (AID 1960)
T3 sequence (Q9XUB2 whole entry): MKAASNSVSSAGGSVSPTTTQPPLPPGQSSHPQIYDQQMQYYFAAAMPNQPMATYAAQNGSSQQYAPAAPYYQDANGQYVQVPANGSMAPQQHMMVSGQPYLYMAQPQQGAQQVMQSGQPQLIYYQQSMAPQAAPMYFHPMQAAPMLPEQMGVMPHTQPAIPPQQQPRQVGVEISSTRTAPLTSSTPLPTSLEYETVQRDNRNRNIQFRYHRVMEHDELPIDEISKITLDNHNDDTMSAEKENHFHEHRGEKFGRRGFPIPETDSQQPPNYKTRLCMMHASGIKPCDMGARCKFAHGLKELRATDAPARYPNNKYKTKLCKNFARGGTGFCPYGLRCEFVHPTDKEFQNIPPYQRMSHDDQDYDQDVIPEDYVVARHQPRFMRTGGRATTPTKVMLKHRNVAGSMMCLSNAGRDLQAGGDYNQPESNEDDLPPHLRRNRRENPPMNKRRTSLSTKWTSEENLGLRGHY

[9] = target: T2, Endoribonuclease toxin MazF; assay: activation of MazEF endoribonuclease cleavage – biochemical, fluorescence, single-stranded RNA substrate, uHTS hits, dose response (AID 588481); format: functional
[10] = target: DNA dC->dU-editing enzyme APOBEC-3A (Homo sapiens, UniProt P31941); assay: Dose Response confirmation of small molecule APOBEC3A DNA Deaminase Inhibitors via a fluorescence-based single-stranded DNA deaminase assay. [Related pubchem assays (depositor defined):AID493011, AID493024]; format: functional
[11] = target: DNA dC->dU-editing enzyme APOBEC-3G (Homo sapiens, UniProt Q9HC16); format: functional;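 note: Dose-response counterscreen measuring inhibition of APOBEC3G DNA deaminase activity, run while confirming APOBEC3A inhibitors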
[12] = target: T4, Carboxy-terminal domain RNA polymerase II polypeptide A small phosphatase 1 (Homo sapiens, UniProt Q9GZU7); assay: CTDSP1 inhibitors, concentration-response, biochemical, absorbance readout, ultra-high-throughput screen actives (AID 540297); format: functional
T4 sequence (Q9GZU7 whole entry): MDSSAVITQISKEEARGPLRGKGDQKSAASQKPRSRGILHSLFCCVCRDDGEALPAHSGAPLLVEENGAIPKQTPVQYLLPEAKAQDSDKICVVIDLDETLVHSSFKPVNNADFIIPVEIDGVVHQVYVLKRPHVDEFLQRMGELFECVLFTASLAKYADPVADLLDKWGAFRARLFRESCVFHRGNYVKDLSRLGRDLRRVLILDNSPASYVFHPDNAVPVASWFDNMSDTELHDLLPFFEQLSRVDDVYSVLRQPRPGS

Bcl-2-like protein 10 = Bcl-2-like protein 10 (Homo sapiens, UniProt Q9HD36); assay: Bcl-B/TR3 peptide binding disruption – biochemical, fluorescence polarization, FITC-TR3 peptide, selectivity assay for Bfl-1 inhibitor project, primary screen (AID 748);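 note: fluorescence polarization from a fluorescein-labelled TR3 peptide binding purified Bcl-B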
[13] = target: DNA damage-inducible transcript 3 protein (Mus musculus, UniProt P35639); format: functional, Cricetulus griseus
[14] = target: T5, Tyrosine-protein phosphatase non-receptor type 5 (Homo sapiens, UniProt P54829); assay: PTPN5 enzyme inhibition – biochemical, fluorescence intensity, uHTS hits, confirmation (AID 602372); format: functional; conditions: read-out: IC50_Mean
T5 sequence (P54829 whole entry): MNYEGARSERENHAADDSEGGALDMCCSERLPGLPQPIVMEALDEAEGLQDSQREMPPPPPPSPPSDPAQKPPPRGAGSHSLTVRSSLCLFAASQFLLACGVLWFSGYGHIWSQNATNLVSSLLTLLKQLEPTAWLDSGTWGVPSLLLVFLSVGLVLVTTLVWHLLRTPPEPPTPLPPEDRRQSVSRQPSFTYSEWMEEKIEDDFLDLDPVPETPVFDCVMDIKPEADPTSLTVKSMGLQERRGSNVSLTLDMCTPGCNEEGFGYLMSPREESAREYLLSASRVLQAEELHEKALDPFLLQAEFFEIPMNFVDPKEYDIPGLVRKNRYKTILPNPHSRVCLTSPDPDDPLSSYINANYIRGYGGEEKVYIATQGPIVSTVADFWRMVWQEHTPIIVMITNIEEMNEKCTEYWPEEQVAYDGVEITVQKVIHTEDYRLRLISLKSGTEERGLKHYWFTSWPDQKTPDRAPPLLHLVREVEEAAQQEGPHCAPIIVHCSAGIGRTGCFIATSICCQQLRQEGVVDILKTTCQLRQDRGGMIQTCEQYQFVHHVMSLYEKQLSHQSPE

[15] = target: T6, Tyrosine-protein phosphatase non-receptor type 11 (Homo sapiens, UniProt Q06124); assay: PTPN11 enzyme inhibitors – biochemical, selectivity assay for STEP inhibitor project, dose response (AID 602367); format: functional; conditions: read-out: IC50_Mean
T6 sequence (Q06124 whole entry): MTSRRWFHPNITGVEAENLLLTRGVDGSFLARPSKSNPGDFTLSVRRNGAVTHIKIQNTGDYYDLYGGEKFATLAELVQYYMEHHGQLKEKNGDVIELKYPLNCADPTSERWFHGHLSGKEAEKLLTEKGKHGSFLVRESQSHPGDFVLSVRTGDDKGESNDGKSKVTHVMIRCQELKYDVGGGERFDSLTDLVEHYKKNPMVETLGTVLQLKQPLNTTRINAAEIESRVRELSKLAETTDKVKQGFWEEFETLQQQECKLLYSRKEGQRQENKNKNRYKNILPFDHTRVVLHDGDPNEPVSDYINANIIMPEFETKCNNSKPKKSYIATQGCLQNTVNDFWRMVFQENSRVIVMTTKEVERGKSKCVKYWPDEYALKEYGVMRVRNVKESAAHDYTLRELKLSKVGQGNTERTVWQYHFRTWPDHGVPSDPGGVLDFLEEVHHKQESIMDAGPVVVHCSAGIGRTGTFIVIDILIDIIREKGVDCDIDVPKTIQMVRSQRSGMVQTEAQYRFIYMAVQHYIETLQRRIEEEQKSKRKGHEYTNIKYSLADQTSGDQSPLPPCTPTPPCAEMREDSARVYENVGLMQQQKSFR

[16] = target: T7, Dual specificity protein phosphatase 3 (Homo sapiens, UniProt P51452); assay: VHR1 phosphatase inhibitors, primary screen, biochemical, absorbance, uHTS (AID 1654)
[17] = target: T8, Dual specificity protein phosphatase 6 (Rattus norvegicus, UniProt Q64346); assay: inhibition of rat DUSP6 enzyme activity – biochemical, in vitro, primary screen (AID 425)
T8 sequence (Q64346 whole entry): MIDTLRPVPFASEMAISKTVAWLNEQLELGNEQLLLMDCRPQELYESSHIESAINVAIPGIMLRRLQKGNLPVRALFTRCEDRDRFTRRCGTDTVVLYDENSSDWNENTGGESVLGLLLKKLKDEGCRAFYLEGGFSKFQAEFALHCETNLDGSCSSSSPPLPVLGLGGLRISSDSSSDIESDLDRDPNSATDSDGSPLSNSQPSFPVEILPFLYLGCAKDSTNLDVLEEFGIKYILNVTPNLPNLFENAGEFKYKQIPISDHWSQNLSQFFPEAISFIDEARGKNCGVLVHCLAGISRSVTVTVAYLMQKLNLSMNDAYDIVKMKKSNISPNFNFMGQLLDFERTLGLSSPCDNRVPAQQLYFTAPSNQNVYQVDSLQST

[18] = target: T7, Dual specificity protein phosphatase 3; assay: VHR phosphatase inhibition, dose response, selectivity assay for STEP inhibitor project, biochemical (AID 602374); format: functional; conditions: read-out: IC50_Mean
[19] = target: T7, Dual specificity protein phosphatase 3; assay: VHR1 phosphatase inhibitors, biochemical (AID 1878)
X-box-binding protein 1 = target: T9, X-box-binding protein 1 (Homo sapiens, UniProt P17861); format: functional, Cricetulus griseus;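 note: confirmatory dose-response counter-screen serving a CHOP assay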
T9 sequence (P17861 whole entry): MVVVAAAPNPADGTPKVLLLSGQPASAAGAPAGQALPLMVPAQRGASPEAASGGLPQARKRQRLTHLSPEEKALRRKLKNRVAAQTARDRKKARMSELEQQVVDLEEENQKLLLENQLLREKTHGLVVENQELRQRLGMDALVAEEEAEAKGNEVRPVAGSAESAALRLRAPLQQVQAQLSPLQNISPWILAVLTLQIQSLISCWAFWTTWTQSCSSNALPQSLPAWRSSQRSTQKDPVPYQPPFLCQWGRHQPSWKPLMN

[20] = target: T10, Ubiquitin-conjugating enzyme E2 N (Homo sapiens, UniProt P61088); format: functional;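 note: Dose-response confirmation in a TR-FRET assay detecting UBC13-driven polyubiquitin chain formation, inhibition measured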
T10 sequence (P61088 whole entry): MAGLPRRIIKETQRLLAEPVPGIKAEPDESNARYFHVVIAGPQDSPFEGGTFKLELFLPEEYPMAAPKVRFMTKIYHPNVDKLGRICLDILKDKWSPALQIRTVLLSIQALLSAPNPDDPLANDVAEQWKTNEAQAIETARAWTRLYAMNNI

Structure (SMILES): N#C/C(=C\c1c[nH]c2ccccc12)C(=O)Nc1ncc(Cc2ccc(Cl)cc2Cl)s1
- EC50 (Troponin, cardiac muscle): > 71.5 µM (inactive)

Structure (SMILES): Cc1nnc(N2C(=O)C(O)=C(C(=O)c3ccco3)C2c2ccc(C(C)(C)C)cc2)s1 (stereo not drawn)
- EC50 [1]: 24.9 µM (active)
- EC50 [2]: > 112 µM (not active)
- EC50 [3]: 28.3 µM (not active)
- EC50 [4]: > 2.94 µM (inactive)
- EC50 [5]: 19.7 µM (active)
- EC50 [6]: > 79.4 µM (not active)
- EC50 [7]: > 112 µM (not active)
- EC50 [8]: 7.86 µM (active)
- EC50 [9]: > 99 µM (inactive)

Structure (SMILES): O=C(COC(=O)C1CCN(S(=O)(=O)c2cc([N+](=O)[O-])ccc2Cl)CC1)Nc1ncc(Cl)cc1Cl
- IC50 [10]: 17.9 µM (active)
- IC50 [11]: 36.3 µM (active)
- IC50 [12]: 4.29 µM (active)
- IC50 (Bcl-2-like protein 10): 3.81 µM (active)

Structure (SMILES): NC(=O)CC(NC(=O)Cc1cccc2ccccc12)c1ccc(NCc2cc(F)ccc2F)c([N+](=O)[O-])c1 (stereo not drawn)
- Absolute IC50 (CHOP) [13]: 10 µM

Structure (SMILES): Cc1ccc(NC(=O)CN(C)c2ccc(S(=O)(=O)N3CCCC3)cn2)cc1
- EC50 (Troponin, cardiac muscle): > 71.5 µM (inactive)

Structure (SMILES): NC(=O)C1(N2CCCCC2)CCN(C(=S)Nc2ccc(S(N)(=O)=O)cc2)CC1
- IC50 [14]: 11.6 µM (active)
- IC50 [15]: 2 µM (active)
- IC50 [16]: 1.86 µM (active)
- IC50 [17]: > 158 µM (not active)
- IC50 [18]: 811 nM (active)
- IC50 [19]: 3.38 µM (active)

Structure (SMILES): Cn1nc(-c2ccccc2)cc1NC(=O)Nc1ccc(C(C)(C)C)cc1
- Absolute IC50 (XBP1) (X-box-binding protein 1): 10 µM
- Absolute IC50 (CHOP) [13]: 10 µM

Structure (SMILES): COc1ccc(-c2c3c(nc4sc(C(=O)Nc5ccccc5)c(N)c24)CCC3)cc1
- EC50 [3]: > 79.4 µM (not active)
- EC50 [4]: > 79.4 µM (inactive)
- IC50 [20]: > 20 µM (inactive)
- EC50 [6]: > 79.4 µM (not active)
